Measured values published in US8658573B2, “Photo-generated carbohydrate arrays and the rapid identification of pathogen-specific antigens and antibodies” (priority 2006, dated 2014).

What follows are compounds tested on rabbit anti-B. anthracis spore polyclonal IgG antibodies.
Type: binding
For `COC(=O)CCCCCO[C@@H]1O[C@@H](C)[C@H](O)[C@@H](O[C@@H]2O[C@H](C)[C@@H](NC(=O)CC(C)(C)O)[C@H](O)[C@H]2OC)[C@H]1O` [compound 2], the “IgG signal detected by carbohydrate arrays (n = 3), Mean” value (“IgG signal detected” for short) was 1.65. In the case of `COC(=O)CCCCCO[C@H]1O[C@@H](C)[C@H](O)[C@@H](O)[C@H]1O[C@@H]1O[C@@H](C)[C@H](O)[C@@H](O)[C@H]1O` [compound 19], the “IgG signal detected” value is reported as 0.98. `COC(=O)CCCCCO[C@@H]1O[C@@H](C)[C@H](O)[C@@H](O)[C@H]1O[C@@H]1O[C@@H](C)[C@H](O)[C@@H](O[C@@H]2O[C@@H](C)[C@H](O)[C@@H](O)[C@H]2O)[C@H]1O` [compound 17] was tested, and the “IgG signal detected” value was 0.98. `COC(=O)CCCCCO[C@@H]1O[C@@H](C)[C@H](O)[C@@H](O)[C@H]1O[C@@H]1O[C@@H](C)[C@H](O)[C@@H](O[C@@H]2O[C@H](C)[C@@H](NC(=O)CC(C)(C)O)[C@H](O)[C@H]2OC)[C@H]1O` [compound 3] was tested, and the “IgG signal detected” value was 2.73. `COC(=O)CCCCCO[C@@H]1O[C@@H](C)[C@H](O)[C@@H](O[C@@H]2O[C@@H](C)[C@H](O)[C@@H](O)[C@H]2O)[C@H]1O` [compound 16] was tested, and the “IgG signal detected” value was 1.00. In the case of `CO[C@H]1O[C@H](CO)[C@@H](O)[C@H](O[C@H]2O[C@H](CO)[C@H](O)[C@H](O)[C@H]2O[C@@H]2O[C@@H](C)[C@H](O)[C@@H](O)[C@H]2O)[C@H]1NC(C)=O` [compound 23], the “IgG signal detected” value is reported as 1.01. For `CO[C@@H]1O[C@@H](C)[C@H](O)[C@@H](O[C@@H]2O[C@@H](C)[C@H](O)[C@@H](O)[C@H]2O)[C@H]1O` [compound 24], the “IgG signal detected” value was 1.02. For `COC(=O)CCCCCO[C@@H]1O[C@H](C)[C@@H](NC(=O)CC(C)(C)O)[C@H](O)[C@H]1OC` [compound 1], the “IgG signal detected” value was 1.44. `COC(=O)CCCCCO[C@H]1O[C@@H](C)[C@H](O)[C@@H](O)[C@H]1O[C@@H]1O[C@@H](C)[C@H](O)[C@@H](O[C@@H]2O[C@@H](C)[C@H](O)[C@@H](O[C@@H]3O[C@H](C)[C@@H](NC(=O)CC(C)(C)O)[C@H](O)[C@H]3OC)[C@H]2O)[C@H]1O` [Id# 4, 5-(Methoxycarbonyl)-pentyl 4-(3-hydroxy-3-methylbutanamido)-2-O-methyl-4,6-dideoxy-β-D-glucopyranosyl-(1→3)-α-L-rhamnopyranoyl-(1→3)-α-L-rhamnopyranosyl-(1→2)-β-L-rhamnopyranoside] was tested, and the “recognition of surface-bound carbohydrate by the antibody (FIG. 2A/2B)” value was “recognized by the antibody”. With `COC1O[C@H](CO)[C@H](O)[C@H](O)[C@H]1O[C@@H]1O[C@@H](C)[C@H](O)[C@@H](O)[C@H]1O` (some centres unmarked) [compound 21] the “IgG signal detected” value was 1.08. In the case of `COC(=O)CCCCCO[C@@H]1O[C@@H](C)[C@H](O)[C@@H](O)[C@H]1O` [compound 14], the “IgG signal detected” value is reported as 0.97. `COC(=O)CCCCCO[C@@H]1O[C@@H](C)[C@H](O)[C@@H](O)[C@H]1O[C@@H]1O[C@@H](C)[C@H](O)[C@@H](O[C@@H]2O[C@@H](C)[C@H](O)[C@@H](O[C@@H]3O[C@H](C)[C@@H](NC(=O)CC(C)(C)O)[C@H](O)[C@H]3OC)[C@H]2O)[C@H]1O` [Id# 5, 5-(Methoxycarbonyl)-pentyl 4-(3-hydroxy-3-methylbutanamido)-2-O-methyl-4,6-dideoxy-β-D-glucopyranosyl-(1→3)-α-L-rhamnopyranoyl-(1→3)-α-L-rhamnopyranosyl-(1→2)-α-L-rhamnopyranoside] was tested, and the “recognition of surface-bound carbohydrate by the antibody (FIG. 2A/2B)” value was “recognized by the antibody”. In the case of `COC(=O)CCCCCO[C@H]1O[C@@H](C)[C@H](O)[C@@H](O)[C@H]1O` [compound 15], the “IgG signal detected” value is reported as 0.95. With `CC(=O)N[C@@H](C=O)[C@@H](O)[C@@H](O)[C@H](O)CO` [compound 11] the “IgG signal detected” value was 1.03. With `CO[C@H]1O[C@H](CO)[C@H](O)[C@H](O)[C@H]1O[C@@H]1O[C@@H](C)[C@H](O)[C@@H](O[C@@H]2O[C@@H](C)[C@H](O)[C@@H](O[C@H]3O[C@H](CO)[C@@H](O)[C@H](O)[C@H]3NC(C)=O)[C@H]2O)[C@H]1O` [compound 22] the “IgG signal detected” value was 0.95. In the case of `COC(=O)CCCCCO[C@H]1O[C@@H](C)[C@H](O)[C@@H](O)[C@H]1O[C@@H]1O[C@@H](C)[C@H](O)[C@@H](O[C@@H]2O[C@@H](C)[C@H](O)[C@@H](O)[C@H]2O)[C@H]1O` [compound 20], the “IgG signal detected” value is reported as 0.95. For `COC(=O)CCCCCO[C@@H]1O[C@@H](C)[C@H](O)[C@@H](O)[C@H]1O[C@@H]1O[C@@H](C)[C@H](O)[C@@H](O)[C@H]1O` [compound 18], the “IgG signal detected” value was 1.26. In the case of `COC(=O)CCCCCO[C@H]1O[C@@H](C)[C@H](O)[C@@H](O)[C@H]1O[C@@H]1O[C@@H](C)[C@H](O)[C@@H](O[C@@H]2O[C@@H](C)[C@H](O)[C@@H](O[C@@H]3O[C@H](C)[C@@H](NC(=O)CC(C)(C)O)[C@H](O)[C@H]3OC)[C@H]2O)[C@H]1O` [compound 4], the “IgG signal detected” value is reported as 5.16. With `COC(=O)CCCCCO[C@@H]1O[C@@H](C)[C@H](O)[C@@H](O)[C@H]1O[C@@H]1O[C@@H](C)[C@H](O)[C@@H](O[C@@H]2O[C@@H](C)[C@H](O)[C@@H](O[C@@H]3O[C@H](C)[C@@H](NC(=O)CC(C)(C)O)[C@H](O)[C@H]3OC)[C@H]2O)[C@H]1O` [compound 5] the “IgG signal detected” value was 5.19. In the case of `COC(=O)CCCCCO[C@@H]1O[C@@H](C)[C@H](O)[C@@H](O)[C@H]1O[C@@H]1O[C@@H](C)[C@H](O)[C@@H](O[C@@H]2O[C@H](C)[C@@H](NC(=O)CC(C)(C)O)[C@H](O)[C@H]2OC)[C@H]1O` [Id# 3, 5-(Methoxycarbonyl)-pentyl 4-(3-hydroxy-3-methylbutanamido)-2-O-methyl-4,6-dideoxy-β-D-glucopyranosyl-(1→3)-α-L-rhamnopyranosyl-(1→2)-α-L-rhamnopyranoside], the “recognition of surface-bound carbohydrate by the antibody (FIG. 2A/2B)” value is reported as “recognized by the antibody”.
